This passage reports IC50 results from ChEMBL document CHEMBL3608278 (J Med Chem, 2015).

Structures are written as SMILES.

Test [1] concerns the target T1, Potassium voltage-gated channel subfamily A member 3 (Homo sapiens, UniProt P22001). The test can be described thus: cell-based. Also noted: species or system Blood.
Test [2] has as its target T1, Potassium voltage-gated channel subfamily A member 3. Also noted: species or system Blood.

T1 sequence (P22001 whole entry): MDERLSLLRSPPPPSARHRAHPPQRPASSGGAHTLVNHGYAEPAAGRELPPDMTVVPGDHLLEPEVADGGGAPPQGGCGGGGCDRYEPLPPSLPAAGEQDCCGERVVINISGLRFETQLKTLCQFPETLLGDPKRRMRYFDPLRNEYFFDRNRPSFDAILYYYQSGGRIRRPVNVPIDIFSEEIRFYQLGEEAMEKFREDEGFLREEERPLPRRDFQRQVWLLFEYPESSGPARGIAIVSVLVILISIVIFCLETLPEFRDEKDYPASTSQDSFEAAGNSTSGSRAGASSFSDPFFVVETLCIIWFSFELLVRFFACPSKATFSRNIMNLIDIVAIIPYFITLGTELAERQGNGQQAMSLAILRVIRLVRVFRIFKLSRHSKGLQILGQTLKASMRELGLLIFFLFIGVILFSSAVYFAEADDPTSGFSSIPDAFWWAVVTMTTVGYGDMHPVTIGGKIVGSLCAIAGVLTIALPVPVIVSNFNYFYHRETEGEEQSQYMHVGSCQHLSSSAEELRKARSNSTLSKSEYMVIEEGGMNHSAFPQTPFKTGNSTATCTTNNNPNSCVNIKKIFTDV

Regarding `CC[C@H](C)[C@@H]1NC(=O)[C@@H](NC(=O)[C@H](CO)NC(=O)[C@@H](N)CCCNC(=N)N)CSSC[C@@H](C(=O)N[C@@H](C)C(=O)O)NC(=O)[C@H]([C@@H](C)O)NC(=O)CNC(=O)[C@@H]2CSSC[C@@H]3NC(=O)[C@H](CCCCN)NC(=O)[C@H](Cc4ccccc4)NC(=O)[C@H](C)NC(=O)[C@H]([C@@H](C)O)NC(=O)[C@H](CSSC[C@H](NC(=O)[C@H](Cc4ccccc4)NC(=O)[C@H](CO)NC(=O)[C@H](CC(C)C)NC(=O)[C@H](CCCNC(=N)N)NC(=O)[C@H](Cc4ccc(O)cc4)NC(=O)[C@H](CCCCN)NC(=O)[C@H](CCSC)NC(=O)[C@H](CO)NC(=O)[C@H](Cc4cnc[nH]4)NC(=O)[C@H](CCCCN)NC3=O)C(=O)N[C@@H](CCCNC(=N)N)C(=O)N[C@@H](CCCCN)C(=O)N[C@@H]([C@@H](C)O)C(=O)N2)NC(=O)[C@H](CCCNC(=N)N)NC(=O)[C@H](CO)NC(=O)[C@H](CCCCN)NC(=O)[C@@H]2CCCN2C(=O)[C@H]([C@@H](C)CC)NC(=O)[C@H]([C@@H](C)O)NC(=O)[C@H](CC(=O)O)NC1=O`, the figures for the IC50 in test [1] and in test [2] were 0.138 nM and 0.266 nM, respectively.
The matching figures for `CC[C@H](C)[C@@H]1NC(=O)[C@@H](NC(=O)[C@H](CO)NC(=O)[C@@H](N)CCCNC(=N)N)CSSC[C@@H](C(=O)O)NC(=O)[C@H]([C@@H](C)O)NC(=O)[C@H](C)NC(=O)[C@@H]2CSSC[C@@H]3NC(=O)[C@H](CCC(N)=O)NC(=O)[C@H](Cc4ccccc4)NC(=O)[C@H](C)NC(=O)[C@H]([C@@H](C)O)NC(=O)[C@H](CSSC[C@H](NC(=O)[C@H](Cc4ccccc4)NC(=O)[C@H](CO)NC(=O)[C@H](CC(C)C)NC(=O)[C@H](CCCNC(=N)N)NC(=O)[C@H](Cc4ccc(O)cc4)NC(=O)[C@H](CCCCN)NC(=O)[C@H](CCSC)NC(=O)[C@H](CO)NC(=O)[C@H](Cc4cnc[nH]4)NC(=O)[C@H](CCCCN)NC3=O)C(=O)N[C@@H](CCCNC(=N)N)C(=O)N[C@@H](CCCCN)C(=O)N[C@@H]([C@@H](C)O)C(=O)N2)NC(=O)[C@H](CCCNC(=N)N)NC(=O)[C@H](CO)NC(=O)[C@H](CCCCN)NC(=O)[C@@H]2CCCN2C(=O)[C@H]([C@@H](C)CC)NC(=O)[C@H]([C@@H](C)O)NC(=O)[C@H](CC(=O)O)NC1=O`: 0.059 nM and 0.122 nM.
Take `CC[C@H](C)[C@@H]1NC(=O)[C@@H](NC(=O)[C@H](CO)NC(=O)[C@@H](N)CCCNC(=N)N)CSSC[C@@H](C(=O)O)NC(=O)[C@H]([C@@H](C)O)NC(=O)CNC(=O)[C@@H]2CSSC[C@@H]3NC(=O)[C@H](CCC(N)=O)NC(=O)[C@H](Cc4ccccc4)NC(=O)[C@H](C)NC(=O)[C@H]([C@@H](C)O)NC(=O)[C@H](CSSC[C@H](NC(=O)[C@H](Cc4ccccc4)NC(=O)[C@H](CCCNC(=N)N)NC(=O)[C@H](CC(C)C)NC(=O)[C@H](CCCNC(=N)N)NC(=O)[C@H](Cc4ccc(O)cc4)NC(=O)[C@H](CCCCN)NC(=O)[C@H](CCSC)NC(=O)[C@H](CO)NC(=O)[C@H](Cc4cnc[nH]4)NC(=O)[C@H](CCCCN)NC3=O)C(=O)N[C@@H](CCCNC(=N)N)C(=O)N[C@@H](CCCCN)C(=O)N[C@@H]([C@@H](C)O)C(=O)N2)NC(=O)[C@H](CCCNC(=N)N)NC(=O)[C@H](CO)NC(=O)[C@H](CCCCN)NC(=O)[C@@H]2CCCN2C(=O)[C@H]([C@@H](C)CC)NC(=O)[C@H]([C@@H](C)O)NC(=O)[C@H](CC(=O)O)NC1=O`: the IC50 is 0.158 nM in test [1] and 0.368 nM in test [2].
As to `CC[C@H](C)[C@@H]1NC(=O)[C@@H](NC(=O)[C@H](CO)NC(=O)[C@@H](N)CCCNC(=N)N)CSSC[C@@H](C(=O)O)NC(=O)[C@H]([C@@H](C)O)NC(=O)CNC(=O)[C@@H]2CSSC[C@@H]3NC(=O)[C@H](CCC(N)=O)NC(=O)[C@H](Cc4ccccc4)NC(=O)[C@H](C)NC(=O)[C@H]([C@@H](C)O)NC(=O)[C@H](CSSC[C@H](NC(=O)[C@H](Cc4ccccc4)NC(=O)[C@H](CO)NC(=O)[C@H](CC(C)C)NC(=O)[C@H](CCCNC(=N)N)NC(=O)[C@H](Cc4ccc(O)cc4)NC(=O)[C@H](CCCCN)NC(=O)[C@H](CCSC)NC(=O)[C@H](CO)NC(=O)[C@H](Cc4c[nH]cn4)NC(=O)[C@H](CCCCN)NC3=O)C(=O)N[C@@H](CCCNC(=N)N)C(=O)N[C@@H](CCCCN)C(=O)N[C@@H]([C@@H](C)O)C(=O)N2)NC(=O)[C@H](CCCNC(=N)N)NC(=O)[C@H](CO)NC(=O)[C@H](CCCCN)NC(=O)[C@@H]2CCCN2C(=O)[C@H]([C@@H](C)CC)NC(=O)[C@H](CCC(=O)O)NC(=O)[C@H](CC(=O)O)NC1=O`, the values for the IC50 in test [1] and in test [2] were 0.074 nM and 0.109 nM, respectively.
Taken in the same sequence, the figures for `CC[C@H](C)[C@@H]1NC(=O)[C@@H](NC(=O)[C@H](CO)NC(=O)[C@@H](N)CCCNC(=N)N)CSSC[C@@H](C(=O)O)NC(=O)[C@H]([C@@H](C)O)NC(=O)CNC(=O)[C@@H]2CSSC[C@@H]3NC(=O)[C@H](CCN)NC(=O)[C@H](Cc4ccccc4)NC(=O)[C@H](C)NC(=O)[C@H]([C@@H](C)O)NC(=O)[C@H](CSSC[C@H](NC(=O)[C@H](Cc4ccccc4)NC(=O)[C@H](CO)NC(=O)[C@H](CC(C)C)NC(=O)[C@H](CCCNC(=N)N)NC(=O)[C@H](Cc4ccc(O)cc4)NC(=O)[C@H](CCCCN)NC(=O)[C@H](CCSC)NC(=O)[C@H](CO)NC(=O)[C@H](Cc4c[nH]cn4)NC(=O)[C@H](CCCCN)NC3=O)C(=O)N[C@@H](CCCNC(=N)N)C(=O)N[C@@H](CCCCN)C(=O)N[C@@H]([C@@H](C)O)C(=O)N2)NC(=O)[C@H](CCCNC(=N)N)NC(=O)[C@H](CO)NC(=O)[C@H](CCCCN)NC(=O)[C@@H]2CCCN2C(=O)[C@H]([C@@H](C)CC)NC(=O)[C@H]([C@@H](C)O)NC(=O)[C@H](CC(=O)O)NC1=O` were 0.086 nM and 0.223 nM.
Taken in the same sequence, the figures for `CC[C@H](C)[C@@H]1NC(=O)[C@@H](NC(=O)[C@H](CO)NC(=O)[C@@H](N)CCCNC(=N)N)CSSC[C@@H](C(=O)O)NC(=O)[C@H]([C@@H](C)O)NC(=O)CNC(=O)[C@@H]2CSSC[C@@H]3NC(=O)[C@H](CCC(N)=O)NC(=O)[C@H](Cc4ccccc4)NC(=O)[C@H](C)NC(=O)[C@H]([C@@H](C)O)NC(=O)[C@H](CSSC[C@H](NC(=O)[C@H](Cc4ccccc4)NC(=O)[C@H](CO)NC(=O)[C@H](CC(C)C)NC(=O)[C@H](CCCNC(=N)N)NC(=O)[C@H](Cc4ccc(O)cc4)NC(=O)[C@H](CCCCN)NC(=O)[C@H](CCSC)NC(=O)[C@H](CO)NC(=O)[C@H](CCCCN)NC(=O)[C@H](CCCCN)NC3=O)C(=O)N[C@@H](CCCNC(=N)N)C(=O)N[C@@H](CCCCN)C(=O)N[C@@H]([C@@H](C)O)C(=O)N2)NC(=O)[C@H](CCCNC(=N)N)NC(=O)[C@H](CO)NC(=O)[C@H](CCCCN)NC(=O)[C@@H]2CCCN2C(=O)[C@H]([C@@H](C)CC)NC(=O)[C@H]([C@@H](C)O)NC(=O)[C@H](CC(=O)O)NC1=O` were 0.041 nM and 0.089 nM.
The matching figures for `CC[C@H](C)[C@@H]1NC(=O)[C@@H](NC(=O)[C@H](CO)NC(=O)[C@@H](N)CCCNC(=N)N)CSSC[C@@H](C(=O)O)NC(=O)[C@H]([C@@H](C)O)NC(=O)CNC(=O)[C@@H]2CSSC[C@@H]3NC(=O)[C@H](CCC(N)=O)NC(=O)[C@H](Cc4ccccc4)NC(=O)[C@H](C)NC(=O)[C@H]([C@@H](C)O)NC(=O)[C@H](CSSC[C@H](NC(=O)[C@H](Cc4ccccc4)NC(=O)[C@H](CO)NC(=O)[C@H](CC(C)C)NC(=O)[C@H](CCCNC(=N)N)NC(=O)[C@H](Cc4ccc(O)cc4)NC(=O)[C@H](CCCCN)NC(=O)[C@H](CCSC)NC(=O)[C@H](CO)NC(=O)[C@H](Cc4cnc[nH]4)NC(=O)[C@H](CCCCN)NC3=O)C(=O)N[C@@H](CCCNC(=N)N)C(=O)N[C@@H](CCCCN)C(=O)N[C@@H]([C@@H](C)O)C(=O)N2)NC(=O)[C@H](CCCNC(=N)N)NC(=O)[C@H](CCC(=O)O)NC(=O)[C@H](CCCCN)NC(=O)[C@@H]2CCCN2C(=O)[C@H]([C@@H](C)CC)NC(=O)[C@H]([C@@H](C)O)NC(=O)[C@H](CC(=O)O)NC1=O`: 0.023 nM and 0.055 nM.
On to `CC[C@H](C)[C@@H]1NC(=O)[C@@H](NC(=O)[C@H](CO)NC(=O)[C@@H](N)CCCNC(=N)N)CSSC[C@@H](C(=O)O)NC(=O)[C@H]([C@@H](C)O)NC(=O)CNC(=O)[C@@H]2CSSC[C@@H]3NC(=O)[C@H](CCC(N)=O)NC(=O)[C@H](Cc4ccccc4)NC(=O)[C@H](C)NC(=O)[C@H]([C@@H](C)O)NC(=O)[C@H](CSSC[C@H](NC(=O)[C@H](Cc4ccccc4)NC(=O)[C@H](CO)NC(=O)[C@H](CC(C)C)NC(=O)[C@H](CCCNC(=N)N)NC(=O)[C@H](Cc4ccc(O)cc4)NC(=O)[C@H](CCCCN)NC(=O)[C@H](CCSC)NC(=O)[C@H](CO)NC(=O)[C@H](Cc4cnc[nH]4)NC(=O)[C@H](CCCCN)NC3=O)C(=O)N[C@@H](CCCNC(=N)N)C(=O)N[C@@H](CCCCN)C(=O)N[C@@H]([C@@H](C)O)C(=O)N2)NC(=O)[C@H](CCCNC(=N)N)NC(=O)[C@H](CO)NC(=O)[C@H](CCCNC(=N)N)NC(=O)[C@@H]2CCCN2C(=O)[C@H]([C@@H](C)CC)NC(=O)[C@H]([C@@H](C)O)NC(=O)[C@H](CC(=O)O)NC1=O`, for which the IC50 in test [1] amounted to 0.076 nM; in test [2] it was 0.083 nM.
Taken in the same sequence, the figures for `CC[C@H](C)[C@@H]1NC(=O)[C@@H](NC(=O)[C@H](CO)NC(=O)[C@@H](N)CCCNC(=N)N)CSSC[C@@H](C(=O)O)NC(=O)[C@H]([C@@H](C)O)NC(=O)CNC(=O)[C@@H]2CSSC[C@@H]3NC(=O)[C@H](CCC(N)=O)NC(=O)[C@H](Cc4ccccc4)NC(=O)[C@H](C)NC(=O)[C@H]([C@@H](C)O)NC(=O)[C@H](CSSC[C@H](NC(=O)[C@H](Cc4ccccc4)NC(=O)[C@H](CO)NC(=O)[C@H](CCCCN)NC(=O)[C@H](CCCNC(=N)N)NC(=O)[C@H](Cc4ccc(O)cc4)NC(=O)[C@H](CCCCN)NC(=O)[C@H](CCSC)NC(=O)[C@H](CO)NC(=O)[C@H](Cc4cnc[nH]4)NC(=O)[C@H](CCCCN)NC3=O)C(=O)N[C@@H](CCCNC(=N)N)C(=O)N[C@@H](CCCCN)C(=O)N[C@@H]([C@@H](C)O)C(=O)N2)NC(=O)[C@H](CCCNC(=N)N)NC(=O)[C@H](CO)NC(=O)[C@H](CCCCN)NC(=O)[C@@H]2CCCN2C(=O)[C@H]([C@@H](C)CC)NC(=O)[C@H]([C@@H](C)O)NC(=O)[C@H](CC(=O)O)NC1=O` were 0.226 nM and 0.366 nM.
